This assay concerns CD2F1 mice, intracerebral P388 leukemia, median survival T/C%. The assay can be described thus: NCI In Vivo Anticancer Drug Screen. Data for tumor model P388 Leukemia (intracerebral) in CD2F1 (CDF1) mice. The conditions noted are these: endpoint: median survival time, higher = longer survival. The procedure:
The antitumor activity of compounds was measured in mice bearing transplantable tumors. Survival or tumor size were measured and the results are expressed as the measurement made in the treated group (T) divided by the measurement made in the vehicle treated control group (C). The tumor model used in this assay is P388 Leukemia (intracerebral) in CD2F1 (CDF1) mice

[1] abbreviates: dose: 8.0 mg/kg/injection, schedule: Q01DX009 (ip), vehicle: saline with Tween-80.
Setting [2] is: dose: 16.0 mg/kg/injection, schedule: Q01DX009 (ip), vehicle: saline with Tween-80.
[3] abbreviates: dose: 32.0 mg/kg/injection, schedule: Q01DX009 (ip), vehicle: saline with Tween-80.
Where [4] appears, read: dose: 64.0 mg/kg/injection, schedule: Q01DX009 (ip), vehicle: saline with Tween-80.
Where [5] appears, read: dose: 128.0 mg/kg/injection, schedule: Q01DX009 (ip), vehicle: saline with Tween-80.
[6] abbreviates: dose: 12.5 mg/kg/injection, schedule: Q01DX009 (ip), vehicle: saline.
Where [7] appears, read: dose: 25.0 mg/kg/injection, schedule: Q01DX009 (ip), vehicle: saline.
Where [8] appears, read: dose: 50.0 mg/kg/injection, schedule: Q01DX009 (ip), vehicle: saline.
Where [9] appears, read: dose: 12.5 mg/kg/injection, schedule: Q01DX009 (ip), vehicle: saline with Tween-80.
Setting [10] is: dose: 25.0 mg/kg/injection, schedule: Q01DX009 (ip), vehicle: saline with Tween-80.
Where [11] appears, read: dose: 8.0 mg/kg/injection, schedule: Q01DX009 (ip), vehicle: saline.

The structures appear in SMILES notation. Where “and” joins values, the source holds several entries; their conditions need not be identical. Equal values may be shown once. Inconclusive results and toxic doses are left out.

`CC(=O)OCC1C(=O)OCC1C(=O)N1Cc2cc3ccccc3nc2C1` (stereo unspecified): the T/C by setting is: (dose: 4.0 mg/kg/injection, schedule: Q01DX009 (ip), vehicle: saline with Tween-80) 101 % of control; under setting [1], 103 % of control; under setting [2], 96 % of control; under setting [3], 107 % of control; under setting [4], 102 % of control; under setting [5], 96 % of control.
In the case of `N=[N+]=CC(=O)CCC(NC(=O)C(CCC(=O)C=[N+]=N)NC(=O)CCC(N)C(=O)O)C(=O)O` (stereo unspecified), the T/C was 106 % of control (dose: 0.05 mg/kg/injection, schedule: Q01DX005 (ip), vehicle: Klucel (hydroxypropylcellulose) (HPC)); 96 % of control and 104 % of control (dose: 0.1 mg/kg/injection, schedule: Q01DX005 (ip), vehicle: Klucel (hydroxypropylcellulose) (HPC)); 100 % of control and 103 % of control (dose: 0.2 mg/kg/injection, schedule: Q01DX005 (ip), vehicle: Klucel (hydroxypropylcellulose) (HPC)); 100 % of control and 105 % of control (dose: 0.4 mg/kg/injection, schedule: Q01DX005 (ip), vehicle: Klucel (hydroxypropylcellulose) (HPC)).
With `O=P1(NCCCl)OCCCN1CCCl` (stereo unspecified), the T/C (dose: 538.0 mg/kg/injection, schedule: Q01DX001 (ip), vehicle: saline) was 153 % of control.
For the molecule `CC1(C)N=C(N)N=C(N)N1c1ccc(OCc2ccc(C(=O)Nc3cccc(S(=O)(=O)F)c3)cc2)c(Cl)c1`, the T/C was 100 % of control (dose: 50.0 mg/kg/injection, schedule: Q04DX003 (ip), vehicle: saline); 94 % of control (dose: 100.0 mg/kg/injection, schedule: Q04DX003 (ip), vehicle: saline); 105 % of control (dose: 200.0 mg/kg/injection, schedule: Q04DX003 (ip), vehicle: saline); 88 % of control (dose: 400.0 mg/kg/injection, schedule: Q04DX003 (ip), vehicle: saline).
Regarding `O=C1C=CN(C2OC(CO)C(O)C2O)C(=O)C1` (stereo unspecified), the T/C is 112 % of control under setting [6]; 106 % of control under setting [7]; 104 % of control under setting [8]; 106 % of control (dose: 100.0 mg/kg/injection, schedule: Q01DX009 (ip), vehicle: saline); 94 % of control (dose: 200.0 mg/kg/injection, schedule: Q01DX009 (ip), vehicle: saline); 94 % of control (dose: 400.0 mg/kg/injection, schedule: Q01DX009 (ip), vehicle: saline).
As for `CC1(CO)C(O)CCC2(C)C1CCC1CC3CC12CCC3(O)CO` (stereo unspecified), the T/C by setting is: under setting [9], 94 % of control; under setting [10], 113 % of control; (dose: 50.0 mg/kg/injection, schedule: Q01DX009 (ip), vehicle: saline with Tween-80) 100 % of control; (dose: 100.0 mg/kg/injection, schedule: Q01DX009 (ip), vehicle: saline with Tween-80) 94 % of control; (dose: 200.0 mg/kg/injection, schedule: Q01DX009 (ip), vehicle: saline with Tween-80) 96 % of control.
For `CCCCCCCCCCCCCCCCCC(=O)N[C@@H](Cc1ccc(N(CCCl)CCCl)cc1)C(=O)NCCCCCC`, the T/C (dose: 2.12 mg/kg/injection, schedule: Q03HX008 (ip), vehicle: saline) was 105 % of control; the T/C (dose: 4.24 mg/kg/injection, schedule: Q03HX008 (ip), vehicle: saline) was 105 % of control; the T/C (dose: 8.48 mg/kg/injection, schedule: Q03HX008 (ip), vehicle: saline) is 105 % of control; the T/C (dose: 16.95 mg/kg/injection, schedule: Q03HX008 (ip), vehicle: saline) was 94 % of control; the T/C (dose: 33.9 mg/kg/injection, schedule: Q03HX008 (ip), vehicle: saline) was 105 % of control; the T/C (dose: 67.8 mg/kg/injection, schedule: Q03HX008 (ip), vehicle: saline) is 110 % of control.
Turning to `CC/C(=C(/CC)c1ccc(O)cc1)c1ccc(O)cc1`, the T/C is, setting by setting: under setting [1], 105 % of control; under setting [11], 104 % of control; under setting [2], 106 % of control; (dose: 16.0 mg/kg/injection, schedule: Q01DX009 (ip), vehicle: saline) 107 % of control; under setting [3], 107 % of control; (dose: 32.0 mg/kg/injection, schedule: Q01DX009 (ip), vehicle: saline) 158 % of control. The T/C was 100 % of control under setting [4]; 116 % of control (dose: 64.0 mg/kg/injection, schedule: Q01DX009 (ip), vehicle: saline); 115 % of control under setting [5]; 90 % of control (dose: 128.0 mg/kg/injection, schedule: Q01DX009 (ip), vehicle: saline); 106 % of control (dose: 256.0 mg/kg/injection, schedule: Q01DX009 (ip), vehicle: saline with Tween-80); 88 % of control (dose: 256.0 mg/kg/injection, schedule: Q01DX009 (ip), vehicle: saline). Moreover, the T/C (dose: 512.0 mg/kg/injection, schedule: Q01DX009 (ip), vehicle: saline with Tween-80) is 86 % of control.
Turning to `CCN(CC)CCCC(C)Nc1c2ccc(Cl)cc2nc2ccc(OC)cc12` (stereo unspecified), the T/C is 96 % of control (dose: 8.0 mg/kg/injection, schedule: Q01DX009 (ip), vehicle: suspension in saline); 96 % of control (dose: 16.0 mg/kg/injection, schedule: Q01DX009 (ip), vehicle: suspension in saline); 100 % of control (dose: 32.0 mg/kg/injection, schedule: Q01DX009 (ip), vehicle: suspension in saline); 88 % of control (dose: 64.0 mg/kg/injection, schedule: Q01DX009 (ip), vehicle: suspension in saline).
With `N[C@H](C(=O)O)[C@@H]1CC(Cl)=NO1`, the T/C runs as follows: (dose: 4.0 mg/kg/injection, schedule: Q01DX009 (ip), vehicle: saline) 168 % of control; under setting [11], 114 % of control.
Consider `CCCCCCCCCCCCCCCCCC(=O)NC(Cc1ccc(N(CCCl)CCCl)cc1)C(=O)O` (stereo unspecified), for which the T/C reads like this: (dose: 1.88 mg/kg/injection, schedule: Q03HX008 (ip), vehicle: saline) 110 % of control; (dose: 3.75 mg/kg/injection, schedule: Q03HX008 (ip), vehicle: saline) 115 % of control.
Consider `CC(C)(C)N1CC1CNC(=O)C(=O)NCC1CN1C(C)(C)C` (stereo unspecified), for which the T/C reads like this: (dose: 3.0 mg/kg/injection, schedule: Q01DX009 (ip), vehicle: saline with Tween-80) 101 % of control; (dose: 3.12 mg/kg/injection, schedule: Q01DX009 (ip), vehicle: saline with Tween-80) 104 % of control and 107 % of control; (dose: 6.0 mg/kg/injection, schedule: Q01DX009 (ip), vehicle: saline with Tween-80) 121 % of control; (dose: 6.25 mg/kg/injection, schedule: Q01DX009 (ip), vehicle: saline with Tween-80) 117 % of control and 111 % of control; under setting [9], 177 % of control; under setting [10], 105 % of control.
As for `CC1(C)N=C(N)N=C(N)N1c1ccc(CCC(=O)Nc2ccc(S(=O)(=O)F)cc2)c(Cl)c1`, the T/C runs as follows: (dose: 6.25 mg/kg/injection, schedule: Q01DX009 (ip), vehicle: saline) 100 % of control; under setting [6], 111 % of control; under setting [7], 105 % of control; under setting [8], 105 % of control.
On to `O=[N+]([O-])O.[Ga]`, for which the T/C (dose: 32.0 mg/kg/injection, schedule: Q01DX005 (ip), vehicle: saline) is 111 % of control; the T/C (dose: 64.0 mg/kg/injection, schedule: Q01DX005 (ip), vehicle: saline) was 111 % of control; the T/C (dose: 128.0 mg/kg/injection, schedule: Q01DX005 (ip), vehicle: saline) is 104 % of control.

For the origin of these results see PubChem BioAssay AID334 (DTP/NCI, 2004).
